Experiment [1] deals with Akt phosphorylated at Thr308 in PC-3 cells. Briefly: Cellular assay: phosphorylation of Akt at Thr308 in PC-3 cells (MSD ELISA). Type of experiment: cell-based. The conditions noted are these: PC-3 cells, 60 min compound incubation, MSD ELISA, read-out: IC50 pAkt_Thr308. In short, it runs like this: (§1)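 PC-3 cells were exposed to compound or 0.3% DMSO for 60 min at 37° C, 5% CO2, then lysed in ice-cold buffer. Phospho-Akt was captured on site-specific antibody-coated plates and detected with Sulfo-tag anti-total Akt by electrochemiluminescence. IC50 values came from five-concentration response curves.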

The next experiment has as its target T1, PI3Kβ (Homo sapiens, UniProt P42338).
T1 construct: purchased DiscoveRx Corporation, San Diego (contract service, KINOMEscan)
The experiment can be described thus: Enzyme binding assay (KINOMEscan, DiscoveRx). Particulars: PIK3Cβ_h, read-out: Kd PIK3Cβ_h. A digest of the protocol: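 KINOMEscan binding platform; read-out is the inhibitor binding constant Kd (nM).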

For the next experiment, the target named is T2, PI3Kδ (Homo sapiens, UniProt O00329).
T2 construct: purchased DiscoveRx Corporation, San Diego (contract service, KINOMEscan)
T2 sequence (O00329 1-1044): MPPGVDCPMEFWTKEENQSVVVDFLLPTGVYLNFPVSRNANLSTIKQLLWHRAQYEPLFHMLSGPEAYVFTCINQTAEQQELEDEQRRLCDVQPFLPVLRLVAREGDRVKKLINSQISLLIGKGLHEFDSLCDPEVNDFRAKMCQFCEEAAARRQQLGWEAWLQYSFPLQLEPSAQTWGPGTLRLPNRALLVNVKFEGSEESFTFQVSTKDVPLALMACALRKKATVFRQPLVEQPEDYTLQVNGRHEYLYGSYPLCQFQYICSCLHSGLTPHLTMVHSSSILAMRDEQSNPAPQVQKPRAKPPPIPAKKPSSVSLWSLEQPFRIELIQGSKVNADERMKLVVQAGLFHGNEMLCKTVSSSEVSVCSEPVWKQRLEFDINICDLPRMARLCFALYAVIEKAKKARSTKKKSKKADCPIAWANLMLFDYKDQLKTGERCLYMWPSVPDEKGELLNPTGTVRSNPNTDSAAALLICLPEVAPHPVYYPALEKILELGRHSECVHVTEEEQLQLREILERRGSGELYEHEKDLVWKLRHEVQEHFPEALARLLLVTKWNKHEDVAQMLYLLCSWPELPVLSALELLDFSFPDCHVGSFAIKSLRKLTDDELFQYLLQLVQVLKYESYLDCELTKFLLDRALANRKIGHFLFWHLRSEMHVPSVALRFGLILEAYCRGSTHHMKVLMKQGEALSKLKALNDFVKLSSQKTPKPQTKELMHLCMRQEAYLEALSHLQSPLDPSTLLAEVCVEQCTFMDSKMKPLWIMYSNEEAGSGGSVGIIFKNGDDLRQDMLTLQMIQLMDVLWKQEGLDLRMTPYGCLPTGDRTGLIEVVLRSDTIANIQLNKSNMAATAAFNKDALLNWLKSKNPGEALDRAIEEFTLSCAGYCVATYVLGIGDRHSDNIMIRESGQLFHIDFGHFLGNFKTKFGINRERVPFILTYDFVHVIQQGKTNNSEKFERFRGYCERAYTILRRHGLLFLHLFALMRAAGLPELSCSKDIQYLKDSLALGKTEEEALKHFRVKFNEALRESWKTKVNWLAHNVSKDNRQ
Briefly: Enzyme binding assay (KINOMEscan, DiscoveRx). Particulars: PIK3Cδ_h. In short, it runs like this: (§2)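 KINOMEscan readout; values are kinase binding affinities.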

Experiment [2] has as its target T3, kinase enzymes (Homo sapiens, UniProt P42345).
T3 construct: purchased DiscoveRx Corporation, San Diego (contract service, KINOMEscan)
The experiment can be described thus: Enzyme binding assay (KINOMEscan, DiscoveRx), further kinases of Table A. The conditions noted are these: MTOR_h. In short, it runs like this: as §2

Experiment [3] deals with T4, kinase enzymes (Homo sapiens, UniProt P48736).
T4 construct: purchased DiscoveRx Corporation, San Diego (contract service, KINOMEscan)
T4 sequence (P48736 whole entry): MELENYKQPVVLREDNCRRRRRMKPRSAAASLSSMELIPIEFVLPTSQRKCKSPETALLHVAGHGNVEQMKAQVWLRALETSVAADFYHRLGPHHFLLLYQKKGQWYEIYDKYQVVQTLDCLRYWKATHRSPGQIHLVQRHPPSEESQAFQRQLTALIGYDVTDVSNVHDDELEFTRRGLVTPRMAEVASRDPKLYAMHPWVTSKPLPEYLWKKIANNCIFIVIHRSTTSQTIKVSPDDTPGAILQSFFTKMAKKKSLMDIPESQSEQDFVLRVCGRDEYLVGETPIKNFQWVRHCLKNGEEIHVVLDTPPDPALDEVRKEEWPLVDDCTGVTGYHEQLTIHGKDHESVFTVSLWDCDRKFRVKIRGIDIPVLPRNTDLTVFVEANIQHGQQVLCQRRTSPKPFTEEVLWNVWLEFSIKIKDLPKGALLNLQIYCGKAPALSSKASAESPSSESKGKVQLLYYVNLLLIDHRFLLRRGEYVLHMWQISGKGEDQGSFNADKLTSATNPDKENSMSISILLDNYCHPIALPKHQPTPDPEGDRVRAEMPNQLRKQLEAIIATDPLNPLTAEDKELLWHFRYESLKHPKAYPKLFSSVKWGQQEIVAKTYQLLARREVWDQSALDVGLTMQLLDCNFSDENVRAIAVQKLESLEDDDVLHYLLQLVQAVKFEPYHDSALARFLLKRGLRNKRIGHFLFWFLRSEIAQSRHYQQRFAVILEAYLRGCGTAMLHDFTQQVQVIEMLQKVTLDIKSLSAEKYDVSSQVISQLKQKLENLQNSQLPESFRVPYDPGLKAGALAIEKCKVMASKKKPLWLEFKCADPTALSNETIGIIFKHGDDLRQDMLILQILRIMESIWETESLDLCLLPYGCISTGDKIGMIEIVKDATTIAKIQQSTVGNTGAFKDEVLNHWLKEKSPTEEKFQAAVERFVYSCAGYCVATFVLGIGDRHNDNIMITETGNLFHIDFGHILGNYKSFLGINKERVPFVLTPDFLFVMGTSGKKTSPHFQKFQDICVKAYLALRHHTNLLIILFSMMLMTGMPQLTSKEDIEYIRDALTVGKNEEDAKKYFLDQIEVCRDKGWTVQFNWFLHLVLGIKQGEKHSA
Described as above. The conditions noted are these: PIK3Cγ_h. A digest of the protocol:
as §2

The target of experiment [4] is T5, kinase enzymes (Homo sapiens, UniProt P42336).
T5 construct: purchased DiscoveRx Corporation, San Diego (contract service, KINOMEscan)
T5 sequence (P42336 whole entry): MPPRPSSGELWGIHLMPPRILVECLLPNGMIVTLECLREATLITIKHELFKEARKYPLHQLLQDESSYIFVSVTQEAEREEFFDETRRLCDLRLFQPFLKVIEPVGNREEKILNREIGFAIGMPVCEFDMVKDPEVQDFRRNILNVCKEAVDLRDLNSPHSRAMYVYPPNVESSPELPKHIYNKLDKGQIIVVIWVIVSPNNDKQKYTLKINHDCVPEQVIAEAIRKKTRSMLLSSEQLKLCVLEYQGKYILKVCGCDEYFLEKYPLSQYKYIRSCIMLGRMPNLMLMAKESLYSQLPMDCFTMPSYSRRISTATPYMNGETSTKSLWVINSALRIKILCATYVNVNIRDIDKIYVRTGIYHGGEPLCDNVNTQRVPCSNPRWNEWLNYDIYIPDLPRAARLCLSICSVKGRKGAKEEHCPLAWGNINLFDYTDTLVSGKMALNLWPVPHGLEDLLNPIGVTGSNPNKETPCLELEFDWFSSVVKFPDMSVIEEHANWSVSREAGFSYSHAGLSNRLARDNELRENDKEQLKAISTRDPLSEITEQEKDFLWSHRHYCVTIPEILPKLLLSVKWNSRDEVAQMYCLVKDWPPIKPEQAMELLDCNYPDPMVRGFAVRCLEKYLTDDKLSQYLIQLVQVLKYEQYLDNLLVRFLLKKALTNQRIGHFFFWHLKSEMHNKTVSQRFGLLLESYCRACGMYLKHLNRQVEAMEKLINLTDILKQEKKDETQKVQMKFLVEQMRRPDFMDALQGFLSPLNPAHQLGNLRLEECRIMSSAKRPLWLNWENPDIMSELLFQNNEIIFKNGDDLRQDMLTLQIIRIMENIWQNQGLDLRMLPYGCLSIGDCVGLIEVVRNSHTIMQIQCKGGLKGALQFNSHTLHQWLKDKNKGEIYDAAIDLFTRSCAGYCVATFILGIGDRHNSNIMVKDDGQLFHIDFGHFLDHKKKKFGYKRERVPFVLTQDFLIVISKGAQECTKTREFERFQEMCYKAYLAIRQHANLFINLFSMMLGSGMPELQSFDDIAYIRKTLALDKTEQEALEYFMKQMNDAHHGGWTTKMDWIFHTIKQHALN
The experiment is described as above. The conditions noted are these: PIK3Cα_h. In short, it runs like this:
as §2

For experiment [5], the system named is Akt phosphorylated at Ser473 in PC-3 cells. Briefly: Cellular assay: phosphorylation of Akt at Ser473 in PC-3 cells (MSD ELISA). Particulars: PC-3 cells, 60 min compound incubation, MSD ELISA, read-out: IC50 pAkt_S473. The class given is cell-based. A digest of the protocol: as §1

SMILES strings stand for the structures. Like-named read-outs stand apart in the source and are kept apart here.

T1 sequence (P42338 whole entry): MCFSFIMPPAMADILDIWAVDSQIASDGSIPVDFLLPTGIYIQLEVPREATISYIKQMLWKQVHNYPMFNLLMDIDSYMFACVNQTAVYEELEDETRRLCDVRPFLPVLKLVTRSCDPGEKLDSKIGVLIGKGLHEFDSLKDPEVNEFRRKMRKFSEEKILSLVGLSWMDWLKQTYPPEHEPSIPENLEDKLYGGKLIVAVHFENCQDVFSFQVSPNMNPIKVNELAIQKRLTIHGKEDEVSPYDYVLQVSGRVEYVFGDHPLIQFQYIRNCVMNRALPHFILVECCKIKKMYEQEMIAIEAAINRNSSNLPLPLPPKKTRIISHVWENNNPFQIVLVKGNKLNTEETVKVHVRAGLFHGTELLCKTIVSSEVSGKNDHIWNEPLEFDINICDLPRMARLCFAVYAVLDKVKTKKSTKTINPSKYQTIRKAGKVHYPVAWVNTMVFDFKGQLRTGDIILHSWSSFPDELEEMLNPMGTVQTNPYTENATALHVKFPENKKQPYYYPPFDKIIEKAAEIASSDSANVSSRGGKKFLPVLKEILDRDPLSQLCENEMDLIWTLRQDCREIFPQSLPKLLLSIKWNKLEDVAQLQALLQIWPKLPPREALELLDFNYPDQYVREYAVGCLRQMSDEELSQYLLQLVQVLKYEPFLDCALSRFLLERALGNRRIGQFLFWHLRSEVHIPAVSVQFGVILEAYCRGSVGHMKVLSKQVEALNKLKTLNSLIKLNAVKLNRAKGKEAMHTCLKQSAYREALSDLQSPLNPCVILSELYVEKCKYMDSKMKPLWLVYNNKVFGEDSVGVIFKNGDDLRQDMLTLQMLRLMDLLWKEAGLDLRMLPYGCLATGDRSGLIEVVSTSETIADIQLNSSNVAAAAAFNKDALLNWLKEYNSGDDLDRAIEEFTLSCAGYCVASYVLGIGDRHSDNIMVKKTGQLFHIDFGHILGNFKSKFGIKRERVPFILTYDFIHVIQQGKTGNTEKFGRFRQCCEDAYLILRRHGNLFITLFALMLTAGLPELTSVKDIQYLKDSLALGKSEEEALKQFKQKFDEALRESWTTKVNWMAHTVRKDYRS

Take `CC(Oc1cc(F)cc(F)c1)c1cc(C(=O)N2CCC2)cc2ncc(N3CCO[C@H](CO)C3)nc12` (mixture of isomers) [Compound 81]: the IC50 is 219 nM in experiment [1] (Homo sapiens, PC-3, 1 h) and around 490 nM in experiment [5] (Homo sapiens, PC-3, 1 h). The dissociation constant Kd was 30 nM at PI3Kβ; 2630 nM at PI3Kδ; above 30.2 µM at kinase enzymes [2]; 29.5 µM on kinase enzymes [3]; 19.1 µM at kinase enzymes [4].
As to `CC(Nc1cc(F)cc(F)c1)c1cc(C(=O)N(C)C)cc2ncc(C3=CCOCC3)nc12` (single isomer, unassigned) [Compound 158], the IC50 was found to be 20 nM in experiment [1] and 23 nM in experiment [5]. For the same compound, the dissociation constant (Kd) on PI3Kβ is 0.4 nM; at PI3Kδ, 120 nM; at kinase enzymes [2], above 30.2 µM; at kinase enzymes [3], 2.29 µM; on kinase enzymes [4], 0.339 µM.
With `CNCCNC(=O)c1cc(C(C)Nc2cccc(F)c2)c2nc(N3CCOCC3)cnc2c1` (single isomer, unassigned) [Compound 139], the values for the IC50 in experiment [1] and in experiment [5] were 249 nM and 132 nM, respectively. The dissociation constant Kd was 41 nM at PI3Kβ; 4420 nM on PI3Kδ; 18.6 µM on kinase enzymes [2]; 3.43 µM at kinase enzymes [3]; 3.76 µM on kinase enzymes [4].
Take `CC(Oc1cccc(F)c1)c1cc(C(=O)N(C)C)cc2ncc(N3CCOCC3)nc12` (racemic) [Compound 339]: the IC50 in experiment [1] and in experiment [5] was above 513 nM each time. Further, the equilibrium dissociation constant (Kd) was 427 nM on PI3Kβ; 2460 nM at PI3Kδ; 16.2 µM at kinase enzymes [2]; 9.33 µM on kinase enzymes [3]; 5.89 µM on kinase enzymes [4].
Consider `CC(Oc1ccc(F)c(F)c1)c1cc(C(=O)N2CCN3CCC[C@H]3C2)cc2ncc(N3CCOCC3)nc12` (single isomer, unassigned) [Compound 369a], for which the IC50 was 251 nM in experiment [1] and around 363 nM in experiment [5] (Homo sapiens, PC-3, 1 h). In addition, the dissociation constant (Kd) at PI3Kβ was 20 nM; on PI3Kδ, 525 nM; at kinase enzymes [2], 25.1 µM; on kinase enzymes [3], above 30.2 µM; at kinase enzymes [4], 7.24 µM.
For the compound `CC(C)NCCNC(=O)c1cc(C(C)Oc2ccc(F)c(F)c2)c2nc(N3CCOCC3)cnc2c1` (single isomer, unassigned) [Compound 286a], the 50% inhibitory concentration (IC50) in experiment [1] and in experiment [5] was above 513 nM in each case. For the same compound, the Kd on PI3Kβ is 182 nM; at PI3Kδ, 5750 nM; on kinase enzymes [2] it was 25.7 µM; on kinase enzymes [3], above 30.2 µM; on kinase enzymes [4], 10.2 µM.
Regarding `CN[C@H]1CCN(C(=O)c2cc(C(C)Oc3cc(F)c(F)c(F)c3)c3nc(N4CCOCC4)cnc3c2)C1` (single isomer, unassigned) [Compound 405a], the IC50 in experiment [1] and in experiment [5] was above 513 nM in each case. Moreover, the Kd at PI3Kβ was 501 nM; on PI3Kδ, 7410 nM; at kinase enzymes [2] it was above 30.2 µM; at kinase enzymes [3] it was above 30.2 µM; at kinase enzymes [4], above 30.2 µM.
In the case of `CC(Nc1cc(F)cc(F)c1)c1cc(C(=O)N2CCOCC2)cc2ncc(N3CCOCC3)nc12` (single isomer, unassigned) [Compound 9], the IC50 in experiment [1] and in experiment [5] was above 513 nM throughout. In addition, the Kd at PI3Kβ was 417 nM; on PI3Kδ it was 18200 nM; on kinase enzymes [2] it was above 30.2 µM; at kinase enzymes [3] it was above 30.2 µM; at kinase enzymes [4], 27.5 µM.
Turning to `CC(Nc1cc(F)cc(F)c1)c1cc(C(=O)O)cc2ncc(N3CCOCC3)nc12` (stereo not drawn) [Compound 236], the IC50 was above 513 nM in experiment [1] (Homo sapiens, PC-3, 1 h) and above 513 nM in experiment [5] (Homo sapiens, PC-3, 1 h). Further, the Kd on PI3Kβ was 2 nM; at PI3Kδ, 158 nM; at kinase enzymes [2], 1.32 µM; on kinase enzymes [3], 0.813 µM; at kinase enzymes [4], 0.112 µM.
For `C[C@@H]1CN(c2cnc3cc(C(=O)N(C)C)cc(C4CCCN4c4cccc(F)c4)c3n2)CCO1` (single isomer, unassigned) [Compound 29], the IC50 in experiment [1] and in experiment [5] was above 513 nM each time. The Kd on PI3Kβ was 1660 nM; on PI3Kδ, 21900 nM; on kinase enzymes [2], 23.4 µM; on kinase enzymes [3], above 30.2 µM; on kinase enzymes [4], 10.2 µM.
With `CC(Nc1ccc(F)c(F)c1)c1cc(C(=O)N2CCN3CCC[C@H]3C2)cc2ncc(N3CCOCC3)nc12` (single isomer, unassigned) [Compound 287a], the IC50 in experiment [1] was 34 nM; in experiment [5], 31 nM. Also, the dissociation constant (Kd) at PI3Kβ was 3 nM; on PI3Kδ it was 234 nM; on kinase enzymes [2], above 30.2 µM; at kinase enzymes [3] it was 20.9 µM; on kinase enzymes [4] it was 1.74 µM.
On to `COC1CN(Cc2cc(C(C)Nc3cc(F)cc(F)c3)c3nc(N4CCOCC4)cnc3c2)CC1OC` (single isomer, unassigned) [Compound 205], for which the IC50 was above 513 nM in experiment [1] and above 513 nM in experiment [5] (Homo sapiens, PC-3, 1 h). Besides, the Kd at PI3Kβ is 204 nM; at PI3Kδ, 17400 nM; on kinase enzymes [2] it was above 30.2 µM; on kinase enzymes [3], above 30.2 µM; on kinase enzymes [4], above 30.2 µM.
Regarding `CN(C)C(=O)c1cc([C@H]2CCCN2c2cc(F)cc(F)c2)c2nc(N3CCOCC3)cnc2c1` [Compound 1], the IC50 is 3 nM in experiment [1] and 2 nM in experiment [5]. For the same compound, the Kd stood at 0.3 nM on PI3Kβ; 15 nM at PI3Kδ; 28.2 µM on kinase enzymes [2]; 0.313 µM at kinase enzymes [3]; 0.034 µM on kinase enzymes [4].
With `CC(Oc1cc(F)cc(F)c1)c1cc(C(=O)N(C)C)cc2ncc(N3CCOCC3)nc12` (single isomer, unassigned) [Compound 5], the figures for the IC50 in experiment [1] and in experiment [5] were 99 nM and 100 nM, respectively. The equilibrium dissociation constant (Kd) on PI3Kβ was 2 nM; at PI3Kδ it was 225 nM; at kinase enzymes [2], 25.1 µM; on kinase enzymes [3], 7.98 µM; on kinase enzymes [4] it was 1.59 µM.
Regarding `CNCCOCCN(C)C(=O)c1cc(C(C)Nc2cc(F)cc(F)c2)c2nc(N3CCOCC3)cnc2c1` (single isomer, unassigned) [Compound 175], the IC50 in experiment [1] worked out at 11 nM; in experiment [5] it was 9 nM. Further, the equilibrium dissociation constant (Kd) was 0.4 nM on PI3Kβ; 112 nM on PI3Kδ; above 30.2 µM on kinase enzymes [2]; 2.57 µM on kinase enzymes [3]; 1.7 µM at kinase enzymes [4].
As for `CC(Nc1cc(F)cc(F)c1)c1cc(C2=NC(C)(C)CO2)cc2ncc(N3CCOCC3)nc12` (single isomer, unassigned) [Compound 187], the IC50 in experiment [1] (Homo sapiens, PC-3, 1 h) was above 513 nM; in experiment [5] (Homo sapiens, PC-3, 1 h), above 513 nM. The dissociation constant Kd on PI3Kβ was 1050 nM; at PI3Kδ, above 30200 nM; at kinase enzymes [2] it was above 30.2 µM; at kinase enzymes [3], above 30.2 µM; at kinase enzymes [4], above 30.2 µM.
In the case of `CN[C@H]1CCN(C(=O)c2cc(NCc3cc(F)cc(F)c3)c3nc(N4CCOCC4)cnc3c2)C1` [Compound 352], the IC50 stood at 21 nM in experiment [1] (Homo sapiens, PC-3, 1 h) and 14 nM in experiment [5] (Homo sapiens, PC-3, 1 h). Besides, the Kd on PI3Kβ is 2 nM; at PI3Kδ, 1000 nM; at kinase enzymes [2] it was above 30.2 µM; on kinase enzymes [3], 9.77 µM; at kinase enzymes [4], 2.29 µM.
With `CC(Oc1cccc(F)c1)c1cc(C(=O)O)cc2ncc(N3CCOCC3)nc12` (single isomer, unassigned) [Compound 257b], the half-maximal inhibitory concentration (IC50) in experiment [1] (Homo sapiens, PC-3, 1 h) is above 513 nM; in experiment [5] (Homo sapiens, PC-3, 1 h) it was above 513 nM. In addition, the Kd is 22 nM at PI3Kβ; 468 nM on PI3Kδ; 2.82 µM at kinase enzymes [2]; 3.09 µM at kinase enzymes [3]; 0.851 µM on kinase enzymes [4].

The values above are taken from patent US10526316B2, “Quinoxaline and pyridopyrazine derivatives as PI3Kβ inhibitors” (Janssen Pharmaceutica NV, priority 2015, dated 2020).
